Data set [1] has as its system Conscious Cynomolgus Monkeys. The data set is described as follows: IOP Response in Conscious Cynomolgus Monkeys. Format: in vivo, cynomolgus monkey. Conditions: right eye. The protocol:
IOP was determined with an Alcon Pneumatonometer after light corneal anesthesia with 0.1% proparacaine. Eyes were washed with saline after each measurement. After a baseline IOP measurement, test compound was instilled in one 30 μL aliquot to the right eyes only of nine cynomolgus monkeys. Vehicle was instilled in the right eyes of six additional animals. Subsequent IOP measurements were taken at 1, 3, and 6 hours.

For data set [2], the target named is T1, 5HT2A(rat) (Rattus norvegicus, UniProt P14842). The data set is described as follows: 5-HT2 Receptor Binding Assay ([125I]DOI competition, cerebral cortex homogenates). Further details: Aliquots of post mortem rat or human cerebral cortex homogenates (400 μL) dispersed in 50 mM TrisHCl buffer; from tissue; host or cells: post mortem rat cerebral cortex homogenate. Conditions: inhibition of [125I]DOI binding. As for the experimental part:
5-HT2 Receptor Binding Assay
Aliquots of post mortem rat or human cerebral cortex homogenates (400 μL) dispersed in 50 mM TrisHCl buffer (pH 7.4) are incubated with [^125I]DOI (80 pM final) in the absence or presence of methiothepin (10 μM final) to define total and non-specific binding, respectively, in a total volume of 0.5 mL. The assay mixture is incubated for 1 hour at 23° C. in polypropylene tubes and the assays terminated by rapid vacuum filtration over Whatman GF/B glass fiber filters previously soaked in 0.3% polyethyleneimine using ice-cold buffer. Test compounds (at different concentrations) are substituted for methiothepin. Filter-bound radioactivity is determined by scintillation spectrometry on a beta counter. The data are analyzed using a non-linear, iterative curve-fitting computer program [Trends Pharmacol. Sci., 16, 413 (1995)] to determine the compound affinity parameter. The concentration of the compound needed to inhibit the [^125I]DOI binding by 50% of the maximum is termed the IC50 or Ki value.

The target in data set [3] is T1, 5HT2A(rat). The data set is described as follows: 5HT2 Functional Assay: [Ca2+]i Mobilization (FLIPR, A7r5 cells). Type of data set: cell-based. Further details: endogenous in cells; host or cells: A7r5 rat vascular smooth muscle cells. Conditions: for EC50: [Ca2+]i mobilization, rat vascular smooth muscle cells A7r5; for Emax: percentage of maximum 5-HT-induced response, A7r5 cells. The protocol:
The receptor-mediated mobilization on intracellular calcium ([Ca^2+]i) was studied using the Fluorescence Imaging Plate Reader (FLIPR) instrument. Rat vascular smooth muscle cells, A7r5, were grown in a normal media of DMEM/10% FBS and 10 μg/mL gentamycin. Confluent cell monolayers were trypsinized, pelleted, and re-suspended in normal media. Cells were seeded in a 50 μL volume at a density of 20,000 cells/well in a black wall, 96-well tissue culture plate and grown for 2 days.
On the day of the experiment, one vial of FLIPR Calcium Assay Kit dye was re-suspended in 50 mL of a FLIPR buffer consisting of Hank's Balanced Salt Solution (HBSS), 20 mM HEPES, and 2.5 mM probenecid, pH 7.4. Cells were loaded with the calcium-sensitive dye by addition of an equal volume (50 μL) to each well of the 96-well plate and incubated with dye for 1 h at 23° C.
Compounds were diluted 1:50 in 20% DMSO/20% Ethanol. For “hit” screening, compounds were further diluted 1:10 in FLIPR buffer and tested at a final concentration of 10 μM.
The compound plate and cell plate were placed in the FLIPR instrument. At the beginning of an experimental run, a signal test was performed to check the basal fluorescence signal from the dye-loaded cells and the uniformity of the signal across the plate. The basal fluorescence was adjusted between 8000-12000 counts by modifying the exposure time, the camera F-stop, or the laser power. Instrument settings for a typical assay were the following: laser power 0.3-0.6 W, camera F-stop F/2, and exposure time 0.4 sec. An aliquot (25 μL) of the test compound was added to the existing 100 μL dye-loaded cells at a dispensing speed of 50 μL/sec. Fluorescence data were collected in real-time at 1.0 sec intervals for the first 60 secs and at 6.0 sec intervals for an additional 120 secs.

Where [4] appears, read: 1 hour after dose, 300 μg topical.
The mark [5] stands for this setting: 3 hours after dose, 300 μg topical.
Setting [6] is: 6 hours after dose, 300 μg topical.

T1 sequence (P14842 whole entry): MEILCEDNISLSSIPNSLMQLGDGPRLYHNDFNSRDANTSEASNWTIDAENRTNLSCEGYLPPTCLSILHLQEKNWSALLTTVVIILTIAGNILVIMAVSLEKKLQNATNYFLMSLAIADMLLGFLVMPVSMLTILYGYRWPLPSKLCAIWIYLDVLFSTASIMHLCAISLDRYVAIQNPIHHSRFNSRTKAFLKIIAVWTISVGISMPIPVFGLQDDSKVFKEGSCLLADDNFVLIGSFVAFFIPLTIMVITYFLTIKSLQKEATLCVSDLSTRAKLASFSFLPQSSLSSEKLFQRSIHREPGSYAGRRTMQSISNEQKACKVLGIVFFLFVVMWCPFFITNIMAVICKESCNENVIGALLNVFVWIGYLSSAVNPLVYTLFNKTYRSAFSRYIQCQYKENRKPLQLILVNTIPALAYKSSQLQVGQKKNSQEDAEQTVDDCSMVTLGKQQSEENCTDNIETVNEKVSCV

With `COc1cc(C[C@@H](C)N)c(OC)cc1I` [(R)-DOI, reference compound], the “Percent IOP Reduction ± SEM” value in data set [1] (1 hour after dose, 100 μg topical) came to 11 ± 5%; in data set [1] (3 hours after dose, 100 μg topical), 25 ± 3%; in data set [1] (6 hours after dose, 100 μg topical), 34 ± 5%.

A word on the IC50: it is the concentration that gives 50% inhibition. As a reminder, the EC50 is the concentration giving half of the maximal effect. The low end stands for greater potency, the high end for weaker potency. The term Emax denotes the maximal effect, on the per cent scale that the assay sets. For `C[C@H](N)Cn1ncc2ccc3oc(C(N)=O)cc3c21` [Example 3, 1-((S)-2-Aminopropyl)-1H-furo[2,3-g]indazole-7-carboxylic acid amide], on 5HT2A(rat) [2], the half-inhibitory concentration (IC50) stood at 0.0023 µM. At 5HT2A(rat) [3], this compound came in with an EC50 of 0.158 µM. Also, the Emax at 5HT2A(rat) [3] was 87%. Further, the “Percent IOP Reduction ± SEM” value in data set [1] (setting [4]) was found to be 9 ± 4%; in data set [1] (setting [5]), 23 ± 4%; in data set [1] (setting [6]) it was 27 ± 5%.

As usually defined, the melting point is the temperature of the solid-liquid transition. On to `CNC(=O)c1cc2c(ccc3cnn(C[C@H](C)N)c32)o1.O=C(O)/C=C/C(=O)O` [Example 4, 1-((S)-2-Aminopropyl)-1H-furo[2,3-g]indazole-7-carboxylic acid methyl amide fumarate], for which the melting point lay within 180 to 182 °C. At 5HT2A(rat) [2], this compound had a concentration for half-maximal inhibition (IC50) of 0.00081 µM. On 5HT2A(rat) [3], the EC50 was found to be 0.054 µM and the Emax came out at 98%. The “Percent IOP Reduction ± SEM” value in data set [1] (setting [4]) is 13 ± 3%. For the same compound, the “Percent IOP Reduction ± SEM” value in data set [1] (setting [5]) is recorded as 30 ± 4%. Moreover, the “Percent IOP Reduction ± SEM” value in data set [1] (setting [6]) was 31 ± 4%.

`C[C@H](N)Cn1ncc2ccc3oc(C(=O)NCCc4cnc[nH]4)cc3c21.O=C(O)/C=C/C(=O)O` [Example 6, 1-((S)-2-Aminopropyl)-1H-furo[2,3-g]indazole-7-carboxylic acid [2-(3H-imidazol-4-yl)-ethyl]-amide fumarate]: the melting point lay within 201 to 203 °C. Also, the IC50 at 5HT2A(rat) [2] is 0.00066 µM. Besides, at 5HT2A(rat) [3], the midpoint of the response, the EC50, lay at 0.057 µM and the maximal response (Emax) was 95%.

`C[C@H](N)Cn1ncc2ccc3oc(C(=O)NCC(C)(C)CO)cc3c21` [Example 11, 1-((S)-2-Aminopropyl)-1H-furo[2,3-g]indazole-7-carboxylic acid (3-hydroxy-2,2-dimethyl-propyl)-amide] registered a half-inhibitory concentration (IC50) on 5HT2A(rat) [2] of 0.0018 µM. Also, at 5HT2A(rat) [3], it took 0.074 µM to reach a half-maximal effect (EC50). On 5HT2A(rat) [3], the Emax came to 76%. Besides, the figures for the “Percent IOP Reduction ± SEM” value in data set [1] (setting [4]), in data set [1] (setting [5]) and in data set [1] (setting [6]) were 10 ± 5%, 23 ± 5% and 26 ± 5%, respectively.

On to `CC(=O)Nc1ccc(S(=O)(=O)NCc2cc3c(ccc4cnn(C[C@H](C)N)c43)o2)cc1` [Example 19, N-(4-{[1-((S)-2-Aminopropyl)-1H-furo[2,3-g]indazol-7-ylmethyl]-sulfamoyl}-phenyl)-acetamide], for which the melting point is 80 to 85 °C. Moreover, the IC50 at 5HT2A(rat) [2] worked out at 0.0041 µM. Also, at 5HT2A(rat) [3], the midpoint of the response, the EC50, lay at 0.131 µM and the Emax was 82%.

These data come from US7476687B2, “Substituted furo[2,3-g]indazoles for the treatment of glaucoma” (Alcon, Inc., priority 2003, dated 2009).
